# Experimental data published in ChEMBL document CHEMBL1137249, “Cytostatic and antiviral 6-arylpurine ribonucleosides. Part 7: synthesis and evaluation of 6-substituted purine l-ribonucleosides” (Bioorg Med Chem Lett, 2006).
# Activity calls are given as the source filed them. The calls are words filed in the database; no cut-off is given here.
# Key:
# [1] = tested on: Hepatitis C virus; assay: Incorporation by HCV con1 NS5Bdelta55 RNA polymerase upto 1mM; details: Hepatitis C virus subtype 1b
# [2] = tested on: Hepatitis C virus; assay: Inhibition of recombinant HCV con1 NS5Bdelta21 RNA polymerase; set-up: species or system Hepatitis C virus subtype 1b
# [3] = tested on: Hepatitis C virus; assay: Antiviral activity against HCV con1 replicon by HCV subgenomic replicon assay; type: functional, organism-based, Hepacivirus hominis; details: genotype 1b con1
# [4] = Cytotoxicity against Huh7 cells expressing HCV con1 replicon; type: cell-based, Huh-7; details: human
# [5] = Cytotoxicity against MT4 cells; type: cell-based; details: human
Structure (SMILES),Activity [1],IC50 [2] [µM],EC50 [3] [µM],CC50 [4] [µM],CC50 [5] [µM]
OC[C@@H]1O[C@H](n2cnc3c(Cc4ccccc4)ncnc32)[C@@H](O)[C@H]1O,inactive,> 100,41,> 500,> 500
Nc1ncnc2c1ncn2[C@H]1O[C@@H](COP(=O)(O)O)[C@H](OP(=O)(O)O)[C@@H]1OP(=O)(O)O,inactive,,,,
Cc1ncnc2c1ncn2[C@H]1O[C@@H](CO)[C@H](O)[C@@H]1O,,,> 500,> 500,
CCc1ncnc2c1ncn2[C@H]1O[C@@H](CO)[C@H](O)[C@@H]1O,,,> 500,> 500,
"COc1ccc(-c2ncnc3c2ncn3[C@H]2OC(CO)[C@H](O)[C@@H]2O)cc1 (single isomer, unassigned)",,,> 50,> 100,
OC[C@H]1O[C@H](n2cnc3c(-c4cccs4)ncnc32)[C@@H](O)[C@H]1O,,,56,> 100,> 100
O=P(O)(O)OC[C@@H]1O[C@H](n2cnc3c(Cc4ccccc4)ncnc32)[C@@H](OP(=O)(O)O)[C@H]1OP(=O)(O)O,inactive,,,,
OC[C@@H]1O[C@H](n2cnc3c(-c4ccsc4)ncnc32)[C@@H](O)[C@H]1O,,,> 50,> 50,
OC[C@@H]1O[C@H](n2cnc3c(-c4ccccc4)ncnc32)[C@@H](O)[C@H]1O,,,> 100,> 50,
OC[C@@H]1O[C@H](n2cnc3c(-c4ccco4)ncnc32)[C@@H](O)[C@H]1O,,,> 100,> 100,
OCc1ncnc2c1ncn2[C@H]1O[C@@H](CO)[C@H](O)[C@@H]1O,,,> 500,> 500,
